Test [1] deals with α₁-Adrenergic receptor. As to the kind of experiment: α₁-Adrenergic receptor binding assay with [³H] prazocin, rat brain cortex membranes. The conditions noted are these: 0.2 nM [³H] prazocin, pH 7.4. How it is done: (§1) After the removal of nuclei by centrifugation at 1000 x g for 10 min, P₂ membranes were pelleted by centrifuging the supernatant at 22,000 x g for 20 min. After two periods of centrifugation at 22,000 x g and resuspension in fresh buffer, the membrane suspension (about 2 mg/ml protein) was ready for use.
(§2) α₁-Adrenergic receptor binding assays (in triplicate) were carried out with 0.2 nM [³H] prazocin in a final volume of 1.0 ml of Tris buffer at pH 7.4 for 30 min at room temperature, using 10 µM phentolamine to determine non-specific binding. The concentrations of synthetic compounds for competition binding were in the range of 0.1 - 200 nM. α₂-adrenergic receptor binding assays (in triplicate) were carried out with 1 nM [³H] clonidine in the presence of 10 mM MgCl₂ and in a final volume of 1.0 ml of Tris buffer at pH 7.4 for 30 min at room temperature, using 10 µM clonidine to determine non-specific binding. The concentrations of synthetic compounds for competition binding were in the range of 0.1-100 µM. After binding had reached equilibrium, incubations were terminated by collecting the membranes on whatman GF/B filters; the filters were washed twice with 5 ml of 50 mM Tris buffer (pH 7.4) at 4°C. The amount of membrane protein used in each assay was in the range of 300-400 µg, as determined by the method of Lowry et al..

The target in test [2] is α₂-adrenergic receptor. As to the kind of experiment: α₂-adrenergic receptor binding assay with [³H] clonidine, rat brain cortex membranes. The note with it: for Ki: 1 nM [³H] clonidine, 10 mM MgCl₂, rat brain cortex membranes, pH 7.4; for α₂/α₁ ratio: ratio of α₂ Ki to α₁ Ki. The protocol:
as §1, §2

The nature of test [3]: Antihypertensive activity: blood pressure and heart rate in anesthetized cats after i.v. administration. The class given is in vivo. The note with it: for MBP (mm Hg) 1 hour / MBP (mm Hg) 2 hour: anesthetized cats. The protocol:
(§3) Adult cats of either sex, 2-3 Kg, anesthetized with pentobarbital sodium (30 mg/Kg i.p.) were used. The trachea was intubated to provide artificial respiration with air by means of a Harvard respirator (respiration rate= 16-20/min and colume= 40-50 ml/stroke). Both femoral artery and vein were cannulated with PE 150 to monitor blood pressure and for drug administration respectively. Body temperature was maintained at 37.5°C with a heating pad and monitored with a rectal thermometer. Blood pressure was measured with a Statham P23D pressure transducer via a polyethylene cannula conducted to a right femoral artery. Heart rate was measured through a Grass Model 7B tachograph preamplifier triggered by the pulses of arterial blood pressure. All data were recorded on a Grass Model 7B polygraph.
The solvent (50% DM50) has no significant action on B.P. or H.R. However, Example 4 compound (250 µg/Kg) decreases B.P. immediately and reaches maximally at 5-10 minutes, and the duration of action is about 4 hours.

A short description of test [4]: Antagonistic effect on blood pressure responses induced by phenylephrine or serotonin in cats. The class given is in vivo. The note with it: cats pretreated with dose of ED₅₀ (0.25mg/kg). The protocol: • Fig. 1 is a does-response plot of 2-(4-phenyl-1-piperazinyl)methyl-2,3-dihydroimidazo[1,2-c]-quinazoline-5(6H)-one (Example 4) on blood pressure in 5 cats; • Fig. 2 is a time-course of various doeses of Example 4 compound on blood pressure in cats; and • Fig. 3 is a plot showing antagonistic effect of Example 4 compound (0.25mg/kg) on blood pressures induced by phenylephrine (0.015mg/kg) or serotonin (0.020mg/kg).
as §3

The mark [5] stands for this setting: cats, i.v., 10 µg to 1 mg/kg, dose-dependent.

This is an account of results in patent EP0594877A1, “Imidazo(1,2-c)quinazoline derivates as antihyper tensives and anti dysurics” (NATIONAL SCIENCE COUNCIL, priority 1992, dated 1994).

What is called Ki is the dissociation constant of the complex between target and ligand, obtained from inhibition or displacement. Consider `CN1C(=O)N2CC(CN3CCN(c4ccccc4Cl)CC3)N=C2c2ccccc21` (centres unmarked) [Example 28, 2-[4-(2-chlorophenyl)-1-piperazinyl]methyl-6-methyl-2,3-dihydroimidazo[1,2-c]quinazolin-5-one], for which the Ki in test [1] worked out at 0.68 ± 0.26 nM.

As for `COc1cc2c(cc1OC)C1=NC(CN3CCN(c4ccccc4)CC3)CN1C(=O)N2` (centres unmarked) [Example 25, 2-(4-phenyl-1-piperazinyl)methyl-8,9-dimethoxy-2,3-dihydro-imidazo[1,2-c]quinazolin-5(6H)-one], in test [2], the affinity corresponds to a Ki of 1690 nM and the α₂/α₁ ratio is on record as 54. Besides, in test [3] (dose 4.0 mg/Kg), the “MBP (mm Hg) 1 hour” value is -38.2±5.7 mm Hg and the “MBP (mm Hg) 2 hour” value is given as -12.6±5.0 mm Hg. For the same compound, the Ki in test [1] stood at 30 ± 10 nM.

Turning to `O=C1Nc2ccccc2C2=NC(CN3CCN(c4ccccc4)CC3)CN12` (centres unmarked) [Example 4, 2-(4-phenyl-1-piperazinyl)methyl-2,3-dihydroimidazo[1,2-c]quinazolin-5(6H)-one], the ED50 in test [3] (Felis catus, iv, cats, i.v., read-out: ED₅₀ of lowing blood pressure) was 0.25 mg/kg. In test [3] (anesthetized cat, 250 µg/Kg i.v.), the “time at which decrease of B.P. reaches maximally” value was in the range of 5 to 10 min. Besides, the “MBP (mm Hg) 1 hour” value is given as -12.5±4.6 mm Hg in test [3] (dose 0.125 mg/Kg), -23.1±2.7 mm Hg in test [3] (dose 0.25 mg/Kg), -49.3±1.5 mm Hg in test [3] (dose 0.5 mg/Kg) and -57.5±2.5 mm Hg in test [3] (dose 1.0 mg/Kg). Further, the “MBP (mm Hg) 2 hour” value in test [3] (dose 0.25 mg/Kg) was -8.75±5.7 mm Hg; in test [3] (dose 0.5 mg/Kg), -32.5±2.5 mm Hg; in test [3] (dose 1.0 mg/Kg) it was -44.5±0.5 mm Hg. In addition, the “changes in heart rate (HR)” value in test [3] (setting [5]) is “biphasically (initially increases, then decreases)”. Moreover, the “effect on SBP and DBP” value in test [3] (setting [5]) is “decreases both SBP and DBP”. The compound also came in with a Ki in test [1] of 2.01 ± 0.09 nM. For the same compound, the “blood pressure response to PE” value in test [4] (phenylephrine 0.015mg/kg, p<0.02) is recorded as “significantly antagonizes”. In test [4] (serotonin 0.020mg/kg, p>0.05), the “blood pressure response to 5-HT” value is on record as “no effect”.

Take `O=C1Nc2ccccc2C2=NC(CN3CCN(c4ccccn4)CC3)CN12` (centres unmarked) [Example 10, 2-[4-(2-Pyridinyl)-1-piperazinyl]methyl-2,3-dihydroimidazo[1,2-c]quinazolin-5(6H)-one]: the Ki in test [1] turned out to be 95.9 ± 5.2 nM.

On to `O=C1Nc2ccccc2C2=NC(CNC3CCN(Cc4ccccc4)CC3)CN12` (centres unmarked) [Example 12, 2-[1-benzylpiperidin-4-yl]aminomethyl-2,3-dihydroimidazo[1,2-c]quinazolin-5(6H)-one], for which the Ki in test [1] amounted to 586 ± 9 nM. This Ki is about 6.1-fold higher than that of the compound before.

For `O=C1Nc2ccccc2C2=NC(CN3CCN(c4ccccc4Cl)CC3)CN12` (centres unmarked) [Example 26, 2-[4-(2-chlorophenyl)-1-piperazinyl]methyl-2,3-dihydroimidazo[1,2-c]quinazolin-5(6H)-one], in test [2], the Ki amounted to 3170 ± 396 nM and the α₂/α₁ ratio turned out to be 3015. Moreover, in test [3] (dose 0.5 mg/Kg), the “MBP (mm Hg) 1 hour” value was -25.5±3.4 mm Hg and the “MBP (mm Hg) 2 hour” value is -5.7±1.5 mm Hg. In addition, in test [3] (dose 1.0 mg/Kg), the “MBP (mm Hg) 1 hour” value was -40.7±9.7 mm Hg and the “MBP (mm Hg) 2 hour” value is given as -12.6±3.4 mm Hg. The Ki in test [1] is 1.1 ± 0.05 nM.

In the case of `COc1ccccc1N1CCN(CC2CN3C(=O)Nc4ccccc4C3=N2)CC1` (centres unmarked) [Example 7, 2-[4-(2-methoxy)phenyl-1-piperazinyl]methyl-2,3-dihydroimidazo[1,2-c]quinazolin-5(6H)-one], the Ki stood at 3450 ± 329 nM in test [2] and 1.3 ± 0.5 nM in test [1]. Further, the α₂/α₁ ratio in test [2] is 2654. Moreover, the “MBP (mm Hg) 1 hour” value in test [3] (dose 0.25 mg/Kg) is given as -17.5 mm Hg; in test [3] (dose 0.5 mg/Kg), -20 mm Hg; in test [3] (dose 1.0 mg/Kg), -30 mm Hg. For the same compound, the “MBP (mm Hg) 2 hour” value in test [3] (dose 0.5 mg/Kg) is -18.8 mm Hg; in test [3] (dose 1.0 mg/Kg), -15 mm Hg.

For `COc1cccc(N2CCN(CC3CN4C(=O)Nc5ccccc5C4=N3)CC2)c1` (centres unmarked) [Example 17, 2-[1-(3-methoxyphenyl)piperazinyl]methyl-2,3-dihydroimidazo[1,2-c]quinazolin-5(6H)-one], in test [3] (dose 4.0 mg/Kg), the “MBP (mm Hg) 1 hour” value was -20.3±10.2 mm Hg and the “MBP (mm Hg) 2 hour” value is on record as -8.5±2.6 mm Hg.

As for `O=C1Nc2ccccc2C2=NC(CN3CCN(Cc4ccccc4)CC3)CN12` (centres unmarked) [Example 8, 2-[4-Benzyl-1-piperazinyl]methyl-2,3-dihydroimidazo[1,2-c]quinazolin-5(6H)-one], in test [2], the Ki is > 10000 nM and the α₂/α₁ ratio is listed as >11. In addition, the “MBP (mm Hg) 1 hour” value in test [3] (dose 4.0 mg/Kg) is -43.7±5.2 mm Hg. The affinity in test [1] corresponds to a Ki of 850 nM.

For the compound “2-(4-phenyl-1-piperazinyl)methyl-2,3-dihydroimidazo[1,2-c]quinazolin-5(6H)-thione [Example 20]”, in test [3] (dose 4.0 mg/Kg), the “MBP (mm Hg) 1 hour” value is -33.9±9.7 mm Hg and the “MBP (mm Hg) 2 hour” value was -22.5±7.6 mm Hg.

For the compound `COc1ccc(N2CCN(CC3CN4C(=O)Nc5ccccc5C4=N3)CC2)cc1` (centres unmarked) [Example 16, 2-[1-(4-methoxyphenyl)piperazinyl]methyl-2,3-dihydroimidazo[1,2-c]quinazolin-5(6H)-one], the Ki in test [1] was > 100 nM.

On to `O=C1Nc2ccccc2C2=NC(CN3CCN(Cc4ccc5c(c4)OCO5)CC3)CN12` (centres unmarked) [Example 6, 2-[4-piperonyl-1-piperazinyl]methyl-2,3-dihydroimidazo[1,2-c]quinazolin-5(6H)-one], for which the Ki in test [1] is > 100 nM.

Turning to `O=C1Nc2ccccc2C2=NC(CN3CCC(Cc4ccccc4)CC3)CN12` (centres unmarked) [Example 9, 2-[4-Benzyl-1-piperidinyl]methyl-2,3-dihydroimidazo[1,2-c]quinazolin-5(6H)-one], in test [2], affinity was put at a Ki of 5011 ± 11 nM and the α₂/α₁ ratio was found to be 140. Further, the “MBP (mm Hg) 1 hour” value in test [3] (dose 4.0 mg/Kg) is on record as -30.6±4.7 mm Hg. In test [1], this compound yielded a Ki of 35.8 ± 8.6 nM.

In the case of “2-[4-(4-fluorobenzyl)-1-piperazinyl]methyl-2,3-dihydroimidazo[1,2-c]quinazolin-5(6H)-one [Example 11]”, in test [2], the affinity, expressed as Ki, was 391 nM and the α₂/α₁ ratio is listed as 27. In addition, the affinity in test [1], expressed as Ki, was 14.4 nM.

`O=C(c1ccc(F)cc1)C1CCN(CC2CN3C(=O)Nc4ccccc4C3=N2)CC1` (centres unmarked) [Example 15, 2-[1-(4-p-fluorobenzoyl)piperidinyl]methyl-2,3-dihydroimidazo[1,2-c]quinazolin-5(6H)-one]: in test [3] (dose 4.0 mg/Kg), the “MBP (mm Hg) 1 hour” value is on record as -30 ±7.3 mm Hg and the “MBP (mm Hg) 2 hour” value was -13.8±8.9 mm Hg.
